Laboratory results as given in PMC8268181, “Pharmacokinetic evaluation of Chalcone derivatives with antimalarial activity in New Zealand White Rabbits” (BMC Research Notes, 2021).
Entries after “also recorded” stand apart in the source; their conditions may differ. Like-named read-outs stand apart in the source and are kept apart here.

Experiment: In vivo pharmacokinetic study, single intraperitoneal/oral dose, plasma concentration by RP-HPLC
Set-up: species or system New Zealand White rabbits
Settings: for Cmax / C0 / AUC(0-t) / half-life / Tmax: both sexes, New Zealand White, plasma; for Cmax: read-out: Cmax (peak plasma concentration); for C0: read-out: C0 (concentration of administrated drug at time zero); for AUC(0-t): linear trapezoidal method, read-out: AUC0–48 (area under the total plasma concentration–time curve); for half-life: read-out: t1/2 (elimination half-life) (converted); for Tmax: rabbit, read-out: tmax (time to reach the peak plasma concentration); for increased bioavailability as compared to in vitro concentration: in vitro concentration from ref 15; for bioavailability (in words): single dose, derivative 1 intraperitoneal, derivatives 2 and 3 oral
Source text: The ten healthy adult New Zealand White rabbits weighing between 1.75–2.75 kg of either sex were procured from the institute Advanced Facility for Small Animal Research, PGIMER Chandigarh, after approval from the Institutional Animal Ethics Committee Ref. No. 69/IAEC/418 as per the Committee for the Purpose of Control and Supervision of Experiments on Animals (CPCSEA) guidelines. The animals were housed in polypropylene cages under standard laboratory conditions at controlled temperature (25 ± °C) and 12-h light/dark cycles until the end of the experimental period. Animals were given free access to diet and water in a room and were fasten for at least 12 h prior to experiment. To achieve meaningful statistical results, we used a minimally sufficient number of animals in all cases. A fifteen-days washout period was carried out, which allows animals to completely recover and clear off the administered derivatives.
A total of ten healthy adult New Zealand White rabbits were divided into three groups; (i) derivative 1 treated group, (ii) derivative 2 treated group, and (iii) derivative 3 treated group. The whole experiment was performed in two batches with each batches containing n = 3 animals per group. The second batch with same groups were repeated after giving fifteen-days washout period which helps animals to recover and clear off previous administered derivatives. The three chalcone derivatives were administered at effective dose concentration [dose extrapolated from in vitro study, [15] as per OECD GLP compliance. A single dose of each chalcone derivatives 1, 2 & 3 (suspended in 0.5% carboxymethyl cellulose) were administered to each animal in the early morning at 7:00 am, which was noted as 0 h and then blood samples (1 mL) of animals were collected at specific time intervals of 0, 0.25 h, 0.5 h, 1 h, 2 h, 4 h, 6 h, 8 h, 12 h, 24 h, 36 h, 48 h from marginal ear vein in heparin containing vials. These derivatives were either administered orally through orogastric tube or intraperitoneally. All blood samples were collected from the marginal ear vein after topical anaesthesia with 4% lignocaine solution. No euthanasia procedure was required during the study, and after completion of experiments all animals were kept in rehabilitation centre according to CPCSEA guidelines, in the institute Advanced Facility for Small Animal Research, PGIMER, Chandigarh. Plasma samples for the determination of drug concentration were prepared for RP-HPLC analysis.
Rabbit blood samples were accumulated in heparin contained dry evacuated tubes from marginal ear veins of healthy rabbits as per the standard operating procedure. These samples were centrifuged within 1 h of collection, for segregation of plasma at 1500 rpm for 10 min. The segregated plasma was preserved at […] till assay. Prior experimental analysis the deproteinization of the plasma samples was done in the mixture of methanol and water (90:10 v/v), then vortexed for at least 10–15 min, after while centrifuged for at least 15 min at 6000 rpm, and finally supernatants were pipette-out in a new vial. The supernatants were then spiked with the measured volume of diluted stock solutions of chalcone making up to final concentrations of 10–100 μg/mL.
Each sample has been collected from rabbits at a different time interval and plasma was separated and either processed for assay procedure or stored at – 20 °C in deep freezer till experiment. On the day of the experiment, 100 µL of plasma from each vial was transferred to another and mixed with 100 µL of acetonitrile (HPLC analytical Grade). Then was kept for 5 min at room temperature and then centrifuged at 7000 rpm for 10 min. Supernatant was separated and reconstituted with the mobile phase and finally sterile filter with 0.22 µm membrane filter before the assay procedure.
Chromatographic separation was achieved as mentioned earlier with slight modification. […]

[1] = ip, derivative 1, single intraperitoneal dose 5.46 mg/1.5 kg rabbit, mean ± SEM, n = 6
[2] = 4.85 mg/kg, derivative 2, single oral dose 7.28 mg/1.5 kg rabbit, mean ± SEM, n = 5
[3] = derivative 2, single oral dose 7.28 mg/1.5 kg rabbit (4.85 mg/kg), mean ± SEM, n = 5
[4] = 3.64 mg/kg, derivative 3, single oral dose 5.46 mg/1.5 kg rabbit, mean ± SEM, n = 6

COc1ccc(/C=C/C(=O)c2cc(OC)ccc2OC)cc1 [Derivative 1, (E)-1-(2,5-Dimethoxyphenyl)-3-(4-methoxyphenyl)prop-2-en-1-one]
Cmax (ip, derivative 1, single intraperitoneal dose 5.46 mg/1.5 kg rabbit (text: 3.84 mg/kg), mean ± SEM, n = 6): 1960 ± 460 ng/mL | C0 [1]: 966 ± 25 ng/mL | AUC(0-t) [1]: 2.94 ± 0.83 µg·h/mL | half-life [1]: 12.6 ± 2.09 h | Tmax (ip, 5.46 mg/1.5 kg rabbit, derivative 1, single intraperitoneal dose 5.46 mg/1.5 kg rabbit (text: 3.84 mg/kg), mean ± SEM, n = 6): 0.33 ± 0.05 h | increased bioavailability as compared to in vitro concentration (compound 1, single intraperitoneal dose): three fold | first blood sampling time at which derivative was spotted in plasma (derivative 1, after IP administration): 15 min | mean CL (derivative 1, single 3.84 mg/kg intraperitoneal dose): 0.28 ± 0.08 L/h | Vd (volume of distribution) (derivative 1, single intraperitoneal dose 5.46 mg/1.5 kg rabbit, mean ± SEM, n = 6): 7.31 ± 0.29 L | bioavailability (in words): very low bioavailability

COc1ccc(/C=C/C(=O)c2cc(OC)c(OC)c(OC)c2)cc1 [Derivative 2, (E)-(3,4,5-Trimethoxyphenyl)-3-(4-methoxyphenyl)prop-2-en-1-one]
C0 [2]: 986 ± 4 ng/mL | AUC(0-t) [2]: 3760 ± 739 µg·h/mL | half-life [2]: 93.3 ± 32.6 h | Tmax (po, 4.85 mg/kg, derivative 2, single oral dose 7.28 mg/1.5 kg rabbit (4.85 mg/kg), mean ± SEM, n = 5): 3.84 h | Cmax [3]: 69900 ± 5490 ng/mL | increased bioavailability as compared to in vitro concentration (compound 2, single oral dose): tenfold | mean CL (derivative 2, single 4.85 mg/kg oral dose): 0.15 ± 0.05 L/h | systemic exposure (in words) (derivative 2, single oral administration, compared to other two chalcone derivatives): comparatively better systemic exposure | time the peak concentration remained constant (derivative 2, single oral dose 4.85 mg/kg): 3 to 4 h | tmax (time to reach the peak plasma concentration) [3]: 3.4 ± 0.79 h | Vd (volume of distribution) (derivative 2, single oral dose 7.28 mg/1.5 kg rabbit, mean ± SEM, n = 5): 10.72 ± 0.66 L

COc1ccc(/C=C/C(=O)c2cc(OC)c(OC)c(OC)c2)cc1OC [Derivative 3, (E)-1-(3,4,5-Trimethoxyphenyl)-3-(3,4-dimethoxyphenyl)prop-2-en-1-one]
C0 [4]: 944 ± 7 ng/mL | AUC(0-t) [4]: 14.2 ± 3.78 µg·h/mL | half-life [4]: 13.3 ± 1.67 h | Tmax (po, 3.64 mg/kg, derivative 3, single oral dose 5.46 mg/1.5 kg rabbit (3.64 mg/kg), mean ± SEM, n = 6): 2.83 ± 0.87 h | Cmax (derivative 3, single oral dose 5.46 mg/1.5 kg rabbit (3.64 mg/kg), mean ± SEM, n = 6): 3740 ± 1640 ng/mL | increased bioavailability as compared to in vitro concentration (compound 3, single oral dose): 25 fold | mean CL (derivative 3, single 3.64 mg/kg oral dose): 0.53 ± 0.10 L/h | kinetics of metabolism / elimination phase (in words) (derivative 3, single oral dose): first order kinetics | Vd (volume of distribution) (derivative 3, single oral dose 5.46 mg/1.5 kg rabbit, mean ± SEM, n = 6): 9.12 ± 0.73 L | bioavailability (in words): poor bioavailability; also recorded: very low bioavailability
